Read-outs that look alike come from different tables or passages of the source.
Biological target: T1, human TRPM8 (Homo sapiens, UniProt Q7Z2W7)
T1 construct: expressed in transfected cells; host or cells: HEK-293/TRPM8 exon1 K3 cells
Experiment: Patch-clamp assay on TRPM8 channels (HEK-293/TRPM8 cells, menthol-evoked currents)
Format: cell-based
Method: Patch clamp experiments for compounds 4, 5 and 9 were done as described. HEK-293/TRPM8 exon 1 cells were seeded 3 or 4 days before experiment at a concentration of 4 and 2.5 million cells, respectively, onto a T225 flask. Before each experiment, cells were washed two times with D-PBS without Ca^2+/Mg^2+ (Euroclone, Milan, Italy) and trypsinized with trypsin−EDTA (Sigma-Aldrich; diluted 1/10). Cells were suspended in 25 mL of EX-CELL ACF CHO medium (Sigma-Aldrich, Milan, Italy), 0.625 mL of HEPES (Lonza, Walkersville, USA), 0.25 mL of 100 × penicillin/streptomycin (Lonza, Walkersville, USA), 0.1 mL of soybean trypsin inhibitor 10 mg/mL (Sigma-Aldrich), and placed on the automated patch-clamp platform (QPatch 16X, Sophion Bioscience, Ballerup, Denmark). A stock solution of L-Menthol (1 M, 100% DMSO), used as reference agonist, was freshly prepared. A diluted stock of 300 mM was prepared from the 1 M stock in 100% DMSO, and a final dilution was obtained using the extracellular solution to give a working concentration of 300 μM (1:1000, 0.1% final DMSO concentration). Stock solutions of the testing compounds (10 mM; 100% DMSO; stored at − 20 °C) were freshly prepared, as well. Further dilution of these stock solutions to a final concentration of 300 μM was performed from the 10 mM stock in 100% DMSO, and the working dilutions were performed just before the experiments using the extracellular solution containing 300 μM menthol. The highest concentration tested was 300 nM, with serial dilutions (1:10). DMSO was balanced to keep it constant throughout all the solutions in the same experiment (0.2% final DMSO concentration). Standard whole-cell voltage clamp experiments were performed at room temperature using the multihole technology. For the voltage clamp experiments on human TRPM8, data were sampled at 2 kHz. After establishment of the seal and the passage in the whole cell configuration, the cells were subjected to a voltage ramp (20 ms step at − 60 mV; 100 ms ramp − 60/ + 100 mV; 20 ms step at + 100 mV; return to − 60 mV) every 4 s. The antagonistic effect on human TRPM8 current of target compounds was evaluated after application of the agonist (menthol, 300 μM), in the absence or presence of increasing concentrations of the compound under investigation. Outward current evoked by the voltage ramp, measured in the step at + 100 mV were measured. The intracellular solution contained (mM) 135 CsCl, 10 BAPTA, 10 HEPES, 4 Na2ATP (pH 7.2 with CsOH). The extracellular solution contained (mM) 145 NaCl, 4 KCl, 1 MgCl2, 2 CaCl2, 10 HEPES, 10 glucose (pH 7.4 with NaOH). TRPM8 modulation by final compounds 3 and 6 has been previously determined by patch clamp measurements[29],[30].

T1 sequence (Q7Z2W7 whole entry): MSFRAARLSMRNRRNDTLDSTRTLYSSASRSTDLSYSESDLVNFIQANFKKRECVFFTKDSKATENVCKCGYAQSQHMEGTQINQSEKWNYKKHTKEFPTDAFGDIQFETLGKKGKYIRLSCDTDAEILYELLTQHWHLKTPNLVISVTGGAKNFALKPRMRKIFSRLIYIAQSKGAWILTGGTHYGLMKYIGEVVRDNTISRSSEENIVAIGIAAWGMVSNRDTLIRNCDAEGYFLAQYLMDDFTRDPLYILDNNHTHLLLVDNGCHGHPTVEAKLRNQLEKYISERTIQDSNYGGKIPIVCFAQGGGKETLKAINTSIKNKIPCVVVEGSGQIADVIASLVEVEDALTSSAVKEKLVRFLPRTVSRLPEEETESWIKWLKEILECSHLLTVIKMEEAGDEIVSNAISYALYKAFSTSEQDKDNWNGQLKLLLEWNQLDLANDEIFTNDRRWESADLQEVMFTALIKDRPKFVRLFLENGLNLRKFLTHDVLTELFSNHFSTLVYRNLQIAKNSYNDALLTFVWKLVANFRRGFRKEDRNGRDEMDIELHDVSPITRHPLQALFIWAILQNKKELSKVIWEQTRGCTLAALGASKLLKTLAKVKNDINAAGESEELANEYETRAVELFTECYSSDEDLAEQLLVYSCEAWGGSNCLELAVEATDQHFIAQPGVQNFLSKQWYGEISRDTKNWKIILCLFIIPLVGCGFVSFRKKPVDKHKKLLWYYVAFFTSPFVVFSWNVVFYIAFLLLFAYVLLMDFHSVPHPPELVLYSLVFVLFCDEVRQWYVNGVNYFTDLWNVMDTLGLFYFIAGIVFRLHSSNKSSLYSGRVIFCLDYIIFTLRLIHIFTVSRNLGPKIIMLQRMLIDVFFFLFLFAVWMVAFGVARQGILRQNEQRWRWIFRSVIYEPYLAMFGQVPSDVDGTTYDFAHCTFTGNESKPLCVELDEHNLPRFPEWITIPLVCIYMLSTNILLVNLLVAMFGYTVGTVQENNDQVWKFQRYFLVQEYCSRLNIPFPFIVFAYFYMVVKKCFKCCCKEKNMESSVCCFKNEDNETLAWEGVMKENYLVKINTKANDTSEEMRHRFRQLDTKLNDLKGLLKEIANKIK

Question: `c1ccc(COc2ccc3[nH]cc(CCNCc4ccc(Oc5ccccc5)cc4)c3c2)cc1` [Compound 4] was tested. Which IC50 (300 µM menthol-evoked currents, read-out: Potency IC50) did it give?
Answer: 204 ± 15 nM

Question: What about the IC50 (TRPM8 antagonist, menthol-evoked currents, one range for both compounds, read-out: IC50) of the same compound?
Answer: 204 to 340 nM

Question: What about the “inhibitory effect on menthol-evoked TRPM8 currents” value (dependence on concentration) of the same compound?
Answer: concentration-dependent
